Among the data in paper PMC8500670, “A selective WDR5 degrader inhibits acute myeloid leukemia in patient-derived mouse models” (Science translational medicine, 2021) are remaining activity values, retold here.

Molecules are shown by their SMILES.

Common to all, as to experiment: biochemical
What all share (set-up): kinase selectivity panel, activity as per cent of control, single concentration in duplicate
Holding throughout (conditions): read-out: % of control remaining

One assay addresses T1, Abl(h) (Homo sapiens, UniProt P00519).
T1 construct: gene ABL1
As to the method: (§1) We next assessed selectivity of MS67 against 22 protein methyltransferases (table S2) and a broad panel of common drug targets including 45 kinases (table S3) and 44 G protein–coupled receptors (GPCR), ion channels, and transporters (table S4). […] We subsequently determined that MS67 had moderate binding affinity (Ki = 1.0 ± 0.8 μM) to Sigma 2 receptor (fig. S10).

The target in the next assay is MARK1(h) (Homo sapiens, UniProt Q9P0L2). How it is done: as §1
The target in the next assay is Plk1(h) (Homo sapiens, UniProt P53350). How it is done: as §1
The next assay addresses T2, JNK1α1(h) (Homo sapiens, UniProt P45983).
T2 construct: gene MAPK8; isoform alpha1
As to the method: as §1

A further assay deals with T3, IKKα(h) (Homo sapiens, UniProt O15111).
T3 construct: gene CHUK
How it is done:
as §1

A further assay addresses T4, SGK(h) (Homo sapiens, UniProt O00141).
T4 construct: gene SGK1
As to the method: as §1

Another assay has as its target T5, SAPK2a(h) (Homo sapiens, UniProt Q16539).
T5 construct: gene MAPK14
How it is done:
as §1

In the next assay the target is T6, Mnk2(h) (Homo sapiens, UniProt Q9HBH9).
T6 construct: gene MKNK2
As to the method: as §1

A further assay deals with T7, TAO2(h) (Homo sapiens, UniProt Q9UL54).
T7 construct: gene TAOK2
As to the method: as §1

A further assay concerns the target Met(h) (Homo sapiens, UniProt P08581). As to the method: as §1
Another assay deals with T8, MAPKAP-K2(h) (Homo sapiens, UniProt P49137).
T8 construct: gene MAPKAPK2
As to the method: as §1

A further assay deals with T9, Aurora-A(h) (Homo sapiens, UniProt O14965).
T9 construct: gene AURKA
As to the method: as §1

A further assay concerns the target EphA3(h) (Homo sapiens, UniProt P29320). As to the method: as §1
Another assay deals with T10, CHK2(h) (Homo sapiens, UniProt O96017).
T10 construct: gene CHEK2
How it is done:
as §1

The target of a further assay is MAP4K4(h) (Homo sapiens, UniProt O95819). As to the method: as §1
A further assay addresses FGFR1(h) (Homo sapiens, UniProt P11362). How it is done:
as §1

Another assay addresses PAK4(h) (Homo sapiens, UniProt O96013). How it is done: as §1

Chain of Plk1(h) (P53350 whole entry): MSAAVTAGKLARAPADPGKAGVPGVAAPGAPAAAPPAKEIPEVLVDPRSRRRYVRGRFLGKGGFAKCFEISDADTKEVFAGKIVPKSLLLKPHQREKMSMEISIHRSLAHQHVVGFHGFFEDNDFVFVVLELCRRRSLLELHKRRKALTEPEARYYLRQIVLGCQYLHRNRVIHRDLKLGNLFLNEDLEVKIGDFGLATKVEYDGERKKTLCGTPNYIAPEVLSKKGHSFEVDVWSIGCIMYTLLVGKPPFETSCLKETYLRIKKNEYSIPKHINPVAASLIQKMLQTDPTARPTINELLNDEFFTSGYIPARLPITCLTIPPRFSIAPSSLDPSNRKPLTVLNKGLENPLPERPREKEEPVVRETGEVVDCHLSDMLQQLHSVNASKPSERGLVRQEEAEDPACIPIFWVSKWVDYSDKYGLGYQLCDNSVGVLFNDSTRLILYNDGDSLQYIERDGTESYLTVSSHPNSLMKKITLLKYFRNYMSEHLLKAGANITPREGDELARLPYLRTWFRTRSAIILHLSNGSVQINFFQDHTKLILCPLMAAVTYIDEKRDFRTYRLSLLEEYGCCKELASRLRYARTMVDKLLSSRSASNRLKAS
T1 sequence (P00519 whole entry): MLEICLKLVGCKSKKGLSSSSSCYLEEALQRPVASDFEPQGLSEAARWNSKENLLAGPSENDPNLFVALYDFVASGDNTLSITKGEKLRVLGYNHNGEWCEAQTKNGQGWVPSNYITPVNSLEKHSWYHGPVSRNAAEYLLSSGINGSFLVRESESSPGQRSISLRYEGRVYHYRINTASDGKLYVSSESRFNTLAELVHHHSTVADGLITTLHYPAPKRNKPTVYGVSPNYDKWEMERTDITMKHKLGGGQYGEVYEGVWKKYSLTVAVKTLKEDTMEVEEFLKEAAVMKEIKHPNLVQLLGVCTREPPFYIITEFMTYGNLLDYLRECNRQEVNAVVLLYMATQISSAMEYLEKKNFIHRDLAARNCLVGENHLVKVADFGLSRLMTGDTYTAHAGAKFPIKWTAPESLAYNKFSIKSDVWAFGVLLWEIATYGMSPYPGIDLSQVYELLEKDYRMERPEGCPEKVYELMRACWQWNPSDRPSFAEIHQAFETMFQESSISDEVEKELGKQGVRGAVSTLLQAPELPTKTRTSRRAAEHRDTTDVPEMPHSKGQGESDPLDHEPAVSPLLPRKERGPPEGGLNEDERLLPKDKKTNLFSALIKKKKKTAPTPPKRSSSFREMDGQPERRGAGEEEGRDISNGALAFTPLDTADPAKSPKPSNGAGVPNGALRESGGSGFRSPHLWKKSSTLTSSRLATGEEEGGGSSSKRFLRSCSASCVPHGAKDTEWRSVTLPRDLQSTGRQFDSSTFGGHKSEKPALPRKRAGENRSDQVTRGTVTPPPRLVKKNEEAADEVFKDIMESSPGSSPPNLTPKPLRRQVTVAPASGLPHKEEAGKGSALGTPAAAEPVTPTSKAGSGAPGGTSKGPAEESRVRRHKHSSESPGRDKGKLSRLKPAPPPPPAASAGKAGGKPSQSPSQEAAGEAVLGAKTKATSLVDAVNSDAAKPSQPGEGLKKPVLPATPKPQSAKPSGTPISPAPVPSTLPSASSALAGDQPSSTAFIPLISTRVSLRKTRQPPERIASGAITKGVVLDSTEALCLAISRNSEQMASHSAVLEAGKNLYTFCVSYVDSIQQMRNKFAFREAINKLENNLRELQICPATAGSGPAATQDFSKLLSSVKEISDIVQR
T7 sequence (Q9UL54 whole entry): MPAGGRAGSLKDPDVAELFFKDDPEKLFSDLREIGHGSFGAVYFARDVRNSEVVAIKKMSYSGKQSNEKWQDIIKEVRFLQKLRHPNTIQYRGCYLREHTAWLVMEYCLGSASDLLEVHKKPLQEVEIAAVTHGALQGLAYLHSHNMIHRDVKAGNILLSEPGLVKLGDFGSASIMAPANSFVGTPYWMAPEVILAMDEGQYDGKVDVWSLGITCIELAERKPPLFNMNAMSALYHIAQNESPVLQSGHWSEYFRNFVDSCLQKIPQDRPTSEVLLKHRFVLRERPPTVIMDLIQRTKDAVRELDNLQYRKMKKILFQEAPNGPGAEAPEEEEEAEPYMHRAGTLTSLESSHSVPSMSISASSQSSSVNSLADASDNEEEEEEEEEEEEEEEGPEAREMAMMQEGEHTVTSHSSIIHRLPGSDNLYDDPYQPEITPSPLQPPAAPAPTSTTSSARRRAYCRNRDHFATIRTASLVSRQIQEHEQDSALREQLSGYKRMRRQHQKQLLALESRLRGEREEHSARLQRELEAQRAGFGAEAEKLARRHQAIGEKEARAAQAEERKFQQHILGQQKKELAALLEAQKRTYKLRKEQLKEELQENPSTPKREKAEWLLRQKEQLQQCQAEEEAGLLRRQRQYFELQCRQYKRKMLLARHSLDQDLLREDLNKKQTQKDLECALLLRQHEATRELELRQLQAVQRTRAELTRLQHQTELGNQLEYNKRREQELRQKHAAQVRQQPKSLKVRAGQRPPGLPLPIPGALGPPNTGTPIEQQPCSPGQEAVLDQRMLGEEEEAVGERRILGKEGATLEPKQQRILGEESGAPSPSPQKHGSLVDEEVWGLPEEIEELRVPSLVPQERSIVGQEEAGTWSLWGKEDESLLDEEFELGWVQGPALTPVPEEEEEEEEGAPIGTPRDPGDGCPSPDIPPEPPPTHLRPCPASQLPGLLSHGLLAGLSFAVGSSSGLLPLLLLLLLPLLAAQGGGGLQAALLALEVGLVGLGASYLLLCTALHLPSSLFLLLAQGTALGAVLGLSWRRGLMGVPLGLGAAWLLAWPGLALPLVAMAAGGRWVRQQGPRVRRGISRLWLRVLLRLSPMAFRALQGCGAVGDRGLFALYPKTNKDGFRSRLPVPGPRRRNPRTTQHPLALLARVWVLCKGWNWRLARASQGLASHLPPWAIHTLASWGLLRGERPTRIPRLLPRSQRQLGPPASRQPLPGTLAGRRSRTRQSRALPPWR
T3 sequence (O15111 whole entry): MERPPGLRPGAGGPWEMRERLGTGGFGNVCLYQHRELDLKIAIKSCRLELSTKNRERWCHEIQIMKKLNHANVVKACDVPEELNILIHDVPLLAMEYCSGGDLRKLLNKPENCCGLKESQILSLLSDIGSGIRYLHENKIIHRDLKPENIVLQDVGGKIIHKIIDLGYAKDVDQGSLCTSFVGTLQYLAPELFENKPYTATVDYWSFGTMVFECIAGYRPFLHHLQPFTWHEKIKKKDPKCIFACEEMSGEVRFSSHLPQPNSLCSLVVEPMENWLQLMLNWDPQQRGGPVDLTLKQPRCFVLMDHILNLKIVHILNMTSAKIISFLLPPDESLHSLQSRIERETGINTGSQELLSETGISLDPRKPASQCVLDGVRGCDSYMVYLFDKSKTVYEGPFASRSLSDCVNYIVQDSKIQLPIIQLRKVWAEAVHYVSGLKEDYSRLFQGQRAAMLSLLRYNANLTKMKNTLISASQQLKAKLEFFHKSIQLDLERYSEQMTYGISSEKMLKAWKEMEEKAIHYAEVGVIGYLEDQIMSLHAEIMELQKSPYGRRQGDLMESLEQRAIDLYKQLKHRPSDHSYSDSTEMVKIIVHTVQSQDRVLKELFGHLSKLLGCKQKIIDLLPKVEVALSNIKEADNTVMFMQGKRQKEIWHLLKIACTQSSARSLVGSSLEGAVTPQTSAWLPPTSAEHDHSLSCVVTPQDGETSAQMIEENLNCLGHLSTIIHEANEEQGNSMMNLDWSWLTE
Chain of FGFR1(h) (P11362 whole entry): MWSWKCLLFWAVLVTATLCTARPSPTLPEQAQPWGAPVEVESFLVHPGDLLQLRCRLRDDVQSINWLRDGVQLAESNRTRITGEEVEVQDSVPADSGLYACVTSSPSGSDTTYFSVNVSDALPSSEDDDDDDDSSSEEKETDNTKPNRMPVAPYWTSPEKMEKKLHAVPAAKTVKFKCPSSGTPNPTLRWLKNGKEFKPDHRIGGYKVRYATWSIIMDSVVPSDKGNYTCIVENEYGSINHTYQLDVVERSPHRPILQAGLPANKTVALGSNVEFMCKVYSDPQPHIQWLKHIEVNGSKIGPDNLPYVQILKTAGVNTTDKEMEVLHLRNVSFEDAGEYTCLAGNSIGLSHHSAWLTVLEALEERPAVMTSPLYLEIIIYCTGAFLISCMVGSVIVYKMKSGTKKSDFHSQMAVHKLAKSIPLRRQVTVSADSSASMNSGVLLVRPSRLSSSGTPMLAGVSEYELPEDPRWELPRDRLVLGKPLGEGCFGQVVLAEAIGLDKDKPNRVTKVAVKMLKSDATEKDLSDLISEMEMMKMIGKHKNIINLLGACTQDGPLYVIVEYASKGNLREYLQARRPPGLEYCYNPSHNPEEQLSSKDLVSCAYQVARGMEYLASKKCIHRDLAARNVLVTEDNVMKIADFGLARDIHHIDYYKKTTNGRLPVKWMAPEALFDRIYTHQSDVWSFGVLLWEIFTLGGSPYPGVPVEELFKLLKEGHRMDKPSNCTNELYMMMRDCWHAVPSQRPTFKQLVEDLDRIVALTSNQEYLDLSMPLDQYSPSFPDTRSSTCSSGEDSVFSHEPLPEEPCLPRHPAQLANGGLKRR
T8 sequence (P49137 whole entry): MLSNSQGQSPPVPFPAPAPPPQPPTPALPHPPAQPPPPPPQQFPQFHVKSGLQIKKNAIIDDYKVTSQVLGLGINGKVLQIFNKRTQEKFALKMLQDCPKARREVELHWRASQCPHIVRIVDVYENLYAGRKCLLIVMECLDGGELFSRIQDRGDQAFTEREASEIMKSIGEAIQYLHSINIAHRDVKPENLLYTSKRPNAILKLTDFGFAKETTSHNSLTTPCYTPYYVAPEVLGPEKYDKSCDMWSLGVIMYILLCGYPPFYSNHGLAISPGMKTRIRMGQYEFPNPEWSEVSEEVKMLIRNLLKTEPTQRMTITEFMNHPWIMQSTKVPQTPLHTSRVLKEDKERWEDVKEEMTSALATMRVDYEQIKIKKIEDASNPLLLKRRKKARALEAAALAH

On to `Cc1ncsc1-c1ccc([C@H](C)NC(=O)[C@@H]2C[C@@H](O)CN2C(=O)[C@@H](NC(=O)CNC(=O)c2ccc(F)c(-c3ccc(N4C[C@@H](C)N(C)[C@@H](C)C4)c(NC(=O)c4c[nH]c(=O)cc4C(F)(F)F)c3)c2)C(C)(C)C)cc1` [MS67], for which the remaining activity at 1 µM worked out at 99% on Abl(h); 100% at MARK1(h); 87% on Plk1(h); 104% on JNK1α1(h); 96% at IKKα(h); 113% on SGK(h). In addition, the remaining activity at 1 µM at SAPK2a(h) stood at 99%; on Mnk2(h), 125%; at TAO2(h), 95%; on Met(h) it was 88%; at MAPKAP-K2(h), 104%; at Aurora-A(h), 108%. Moreover, the remaining activity at 1 µM on EphA3(h) was found to be 125%; on CHK2(h), 97%; on MAP4K4(h), 100%; at FGFR1(h), 105%; at PAK4(h), 95%.
